Experimental findings from US20230024096A1, “BIFUNCTIONAL COMPOUNDS FOR THE TREATMENT OF CANCER” (Hoffmann-La Roche Inc., priority 2019, published 2023) are described below.

This assay deals with T1, SMARCA2 (Homo sapiens, UniProt P51531).
T1 construct: endogenous in cells; host or cells: HT1080 (CRISPR HiBiT knock-in clone, generated in house)
Nature of the assay: SMARCA2 HiBiT degradation assay (cellular). It counts as cell-based. To be noted: table head names A549; for DC50: HiBiT-tagged SMARCA2, luminescence read-out, read-out: HiBit A549 SMARCA2 IP (nM) 6 h; for Emax: A549, 6 h incubation. On the technique in general: HiBiT is a short tag that completes a luciferase, so light tracks the accessible tagged protein.

The mark [1] stands for this setting: Emax = amount of residual protein remaining in the cell following compound treatment.

Usually Emax stands for the size of the effect at its maximum, as opposed to the concentration needed.

T1 sequence (P51531 whole entry): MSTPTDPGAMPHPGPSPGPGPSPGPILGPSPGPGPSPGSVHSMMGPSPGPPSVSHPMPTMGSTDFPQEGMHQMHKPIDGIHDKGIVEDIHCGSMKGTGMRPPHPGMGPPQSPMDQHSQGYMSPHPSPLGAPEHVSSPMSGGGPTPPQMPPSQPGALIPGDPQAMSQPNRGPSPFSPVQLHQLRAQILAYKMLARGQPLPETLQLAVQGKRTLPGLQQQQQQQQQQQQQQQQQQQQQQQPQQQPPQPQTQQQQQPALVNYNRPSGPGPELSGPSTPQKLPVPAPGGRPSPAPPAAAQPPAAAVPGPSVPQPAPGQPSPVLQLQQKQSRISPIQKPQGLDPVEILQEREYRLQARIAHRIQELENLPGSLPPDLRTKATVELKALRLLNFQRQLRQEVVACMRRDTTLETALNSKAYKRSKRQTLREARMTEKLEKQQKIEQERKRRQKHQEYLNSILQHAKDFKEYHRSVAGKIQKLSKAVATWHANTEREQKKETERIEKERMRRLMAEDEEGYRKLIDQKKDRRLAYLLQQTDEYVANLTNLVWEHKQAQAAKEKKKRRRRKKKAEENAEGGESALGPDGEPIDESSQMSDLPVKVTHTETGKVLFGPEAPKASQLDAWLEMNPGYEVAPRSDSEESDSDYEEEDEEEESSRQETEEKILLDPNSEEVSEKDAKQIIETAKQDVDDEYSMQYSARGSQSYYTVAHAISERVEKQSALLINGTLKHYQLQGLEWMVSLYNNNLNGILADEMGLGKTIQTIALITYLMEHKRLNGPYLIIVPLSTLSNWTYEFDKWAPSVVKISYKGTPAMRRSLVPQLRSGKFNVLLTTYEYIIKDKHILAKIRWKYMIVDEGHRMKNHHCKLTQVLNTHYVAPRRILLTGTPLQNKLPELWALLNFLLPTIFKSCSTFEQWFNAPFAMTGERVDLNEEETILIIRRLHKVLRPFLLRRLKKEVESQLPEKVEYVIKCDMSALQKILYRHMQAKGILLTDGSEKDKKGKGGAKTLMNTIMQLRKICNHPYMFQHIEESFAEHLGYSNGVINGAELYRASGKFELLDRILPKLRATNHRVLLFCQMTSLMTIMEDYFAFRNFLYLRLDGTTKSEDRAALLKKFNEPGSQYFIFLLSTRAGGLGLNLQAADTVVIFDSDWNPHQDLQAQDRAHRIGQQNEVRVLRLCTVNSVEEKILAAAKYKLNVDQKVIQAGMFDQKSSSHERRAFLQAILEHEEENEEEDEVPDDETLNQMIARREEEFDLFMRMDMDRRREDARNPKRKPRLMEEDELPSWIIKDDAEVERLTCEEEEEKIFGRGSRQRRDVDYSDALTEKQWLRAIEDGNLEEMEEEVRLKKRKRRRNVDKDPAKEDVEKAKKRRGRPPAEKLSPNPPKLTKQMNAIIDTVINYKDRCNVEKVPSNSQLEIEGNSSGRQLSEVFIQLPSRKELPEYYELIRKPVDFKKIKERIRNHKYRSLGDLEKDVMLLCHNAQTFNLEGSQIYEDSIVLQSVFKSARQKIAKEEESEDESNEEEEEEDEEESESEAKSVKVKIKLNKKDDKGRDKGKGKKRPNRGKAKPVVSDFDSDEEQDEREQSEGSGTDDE

For `Nc1nnc(-c2ccccc2O)cc1OC1CCCN(c2ccc(N3CCN(CCCCCCCCCn4cc(CNc5cccc6c5C(=O)N(C5CCC(=O)NC5=O)C6=O)nn4)CC3)cc2)C1` (stereo not shown) [Example 37, 4-[[1-[9-[4-[4-[3-[3-amino-6-(2-hydroxyphenyl)pyridazin-4-yl]oxy-1-piperidyl]phenyl]piperazin-1-yl]nonyl]triazol-4-yl]methylamino]-2-(2,6-dioxo-3-piperidyl)isoindoline-1,3-dione], the DC50 (6 h incubation) was determined as 57 nM. The same compound returned an Emax under setting [1] of 34%.

As for `Nc1nnc(-c2ccccc2O)cc1OC1CCCN(c2ccc(N3CCN(CC4CN(C(=O)CCCCn5cc(COc6cccc7c6C(=O)N(C6CCC(=O)NC6=O)C7=O)nn5)C4)CC3)cc2)C1` (racemic) [Example 137, 2-(2,6-dioxo-3-piperidyl)-4-[[1-[5-oxo-5-[3-[[4-[4-[rac-(3S)-3-[3-amino-6-(2-hydroxyphenyl)pyridazin-4-yl]oxy-1-piperidyl]phenyl]piperazin-1-yl]methyl]azetidin-1-yl]pentyl]triazol-4-yl]methoxy]isoindoline-1,3-dione], the DC50 (6 h incubation) stood at 535 nM. Besides, the Emax under setting [1] was 63%.

Turning to `Nc1nnc(-c2ccccc2O)cc1N1CCC(C(=O)NCC2CCN(C(=O)CC3CCN(c4ccc5c(c4)C(=O)N(C4CCC(=O)NC4=O)C5=O)CC3)CC2)(c2ccccc2)CC1` (stereo not shown) [Example 103, 1-(3-amino-6-(2-hydroxyphenyl)pyridazin-4-yl)-N-((1-(2-(1-(2-(2,6-dioxopiperidin-3-yl)-1,3-dioxoisoindolin-5-yl)piperidin-4-yl)acetyl)piperidin-4-yl)methyl)-4-phenylpiperidine-4-carboxamide], the DC50 (6 h incubation) amounted to 104 nM. The Emax under setting [1] turned out to be 45%.

For the compound `CC(Oc1cccc2c1C(=O)N(C1CCC(=O)NC1=O)C2=O)c1cn(CCC(=O)N2CCN(CCCN3CCN(c4ccc(N5CCC[C@H](Oc6cc(-c7ccccc7O)nnc6N)C5)cc4)CC3)CC2)nn1` (mixture of isomers) [Example 204, 2-(2,6-dioxo-3-piperidyl)-4-[1-[1-[3-oxo-3-[4-[3-[4-[4-[rac-(3S)-3-[3-amino-6-(2-hydroxyphenyl)pyridazin-4-yl]oxy-1-piperidyl]phenyl]piperazin-1-yl]propyl]piperazin-1-yl]propyl]triazol-4-yl]ethoxy]isoindoline-1,3-dione], the DC50 (6 h incubation) was 907 nM. The Emax under setting [1] was 39%.

Consider `Nc1nnc(-c2ccccc2O)cc1OC1CCCN(c2ccc(N3CCN(CCCCCCCCCn4cc(COc5cccc6c5C(=O)N(C5CCC(=O)NC5=O)C6=O)nn4)CC3)cc2)C1` (stereo not shown) [Example 65, 4-[[1-[9-[4-[4-[3-[3-amino-6-(2-hydroxyphenyl)pyridazin-4-yl]oxy-1-piperidyl]phenyl]piperazin-1-yl]nonyl]triazol-4-yl]methoxy]-2-(2,6-dioxo-3-piperidyl)isoindoline-1,3-dione], for which the DC50 (6 h incubation) was 115 nM. Under setting [1], this compound displayed a maximum response (Emax) of 31%.

As for `Nc1nnc(-c2ccccc2O)cc1N1CC2CCC(C1)N2c1cccc(OCCN2CCN(C(=O)CCCCCNc3cccc4c3C(=O)N(C3CCC(=O)NC3=O)C4=O)CC2)c1` (racemic) [Example 12, rac-4-[[6-[4-[2-[3-[3-[3-amino-6-(2-hydroxyphenyl)pyridazin-4-yl]-3,8-diazabicyclo[3.2.1]octan-8-yl]phenoxy]ethyl]piperazin-1-yl]-6-oxo-hexyl]amino]-2-(2,6-dioxo-3-piperidyl)isoindoline-1,3-dione], the DC50 (6 h incubation) is 60 nM. Besides, the Emax under setting [1] amounted to 55%.

Consider `Nc1nnc(-c2ccccc2O)cc1N1CC2CCC(C1)N2c1cccc(OCCN2CCN(C(=O)N3CCC4(CC3)CCN(c3ccc5c(c3)C(=O)N(C3CCC(=O)NC3=O)C5=O)CC4)CC2)c1` (racemic) [Example 52, rac-5-[3-[4-[2-[3-[3-[3-amino-6-(2-hydroxyphenyl)pyridazin-4-yl]-3,8-diazabicyclo[3.2.1]octan-8-yl]phenoxy]ethyl]piperazine-1-carbonyl]-3,9-diazaspiro[5.5]undecan-9-yl]-2-(2,6-dioxo-3-piperidyl)isoindoline-1,3-dione], for which, for the setting “6 h incubation”, the DC50 is 37 nM. This compound also displayed an Emax under setting [1] of 52%.

As to `Nc1nnc(-c2ccccc2O)cc1N1CCN(c2cccc(OCCN3CCN(C(=O)C4CCN(c5ccc6c(c5)C(=O)N(C5CCC(=O)NC5=O)C6=O)CC4)CC3)c2)C2(CCC2)C1` (stereo not shown) [Example 197, 5-[4-[4-[2-[3-[8-[3-amino-6-(2-hydroxyphenyl)pyridazin-4-yl]-5,8-diazaspiro[3.5]nonan-5-yl]phenoxy]ethyl]piperazine-1-carbonyl]-1-piperidyl]-2-(2,6-dioxo-3-piperidyl)isoindoline-1,3-dione], the DC50 (6 h incubation) was found to be 46 nM. Under setting [1], this compound had a maximal response (Emax) of 30%.

On to `Nc1nnc(-c2cc(F)ccc2O)cc1N1CCC(CNC(=O)CCCN2CCC(c3ccc(OC4CCC(=O)NC4=O)cc3)CC2)(c2ccccc2)CC1` (stereo not shown) [Example 183, N-[[1-[3-amino-6-(5-fluoro-2-hydroxy-phenyl)pyridazin-4-yl]-4-phenyl-4-piperidyl]methyl]-4-[4-[4-[(2,6-dioxo-3-piperidyl)oxy]phenyl]-1-piperidyl]butanamide], for which the DC50 (6 h incubation) is 99 nM. This compound also registered an Emax under setting [1] of 37%.

For the compound `Nc1nnc(-c2ccccc2O)cc1N1CCC(C(=O)N2CCC3(CC2)CN(C(=O)CN2CCN(c4ccc(NC5CCC(=O)NC5=O)cc4)CC2)CCO3)(c2ccccc2)CC1` (stereo not shown) [Example 173, 3-((4-(4-(2-(9-(1-(3-amino-6-(2-hydroxyphenyl)pyridazin-4-yl)-4-phenylpiperidine-4-carbonyl)-1-oxa-4,9-diazaspiro[5.5]undecan-4-yl)-2-oxoethyl)piperazin-1-yl)phenyl)amino)piperidine-2,6-dione], the DC50 (6 h incubation) was found to be 110 nM. The Emax under setting [1] came out at 72%.

Take `Nc1nnc(-c2ccccc2O)cc1N1CC2CCC(C1)N2c1cccc(CN2CCN(CCCOC3CCN(c4ccc5c(c4)C(=O)N(C4CCC(=O)NC4=O)C5=O)CC3)CC2)c1` (racemic) [Example 56, rac-5-[4-[3-[4-[[3-[3-[3-Amino-6-(2-hydroxyphenyl)pyridazin-4-yl]-3,8-diazabicyclo[3.2.1]octan-8-yl]phenyl]methyl]piperazin-1-yl]propoxy]-1-piperidyl]-2-(2,6-dioxo-3-piperidyl)isoindoline-1,3-dione]: under “6 h incubation”, the DC50 came out at 10 nM. Also, the Emax under setting [1] is 36%.

On to `Nc1nnc(-c2ccccc2O)cc1N1CC2CCC(C1)N2c1cccc(CN2CCC(C(=O)N3CCN(c4ccc5c(c4)C(=O)N(C4CCC(=O)NC4=O)C5=O)CC3)CC2)c1` (racemic) [Example 95, rac-5-[4-[1-[[3-[3-[3-amino-6-(2-hydroxyphenyl)pyridazin-4-yl]-3,8-diazabicyclo[3.2.1]octan-8-yl]phenyl]methyl]piperidine-4-carbonyl]piperazin-1-yl]-2-(2,6-dioxo-3-piperidyl)isoindoline-1,3-dione], for which, under “6 h incubation”, the DC50 was 13 nM. The same compound came in with an Emax under setting [1] of 25%.

`Nc1nnc(-c2ccccc2O)cc1N1CC2CCC(C1)N2c1cccc(OCCN2CCN(C(=O)CCC(=O)N3CCN(Cc4cccc5c4C(=O)N(C4CCC(=O)NC4=O)C5=O)CC3)CC2)c1` (racemic) [Example 22, rac-4-[[4-[4-[4-[2-[3-[3-[3-amino-6-(2-hydroxyphenyl)pyridazin-4-yl]-3,8-diazabicyclo[3.2.1]octan-8-yl]phenoxy]ethyl]piperazin-1-yl]-4-oxo-butanoyl]piperazin-1-yl]methyl]-2-(2,6-dioxo-3-piperidyl)isoindoline-1,3-dione]: the DC50 (6 h incubation) turned out to be 212 nM. The Emax under setting [1] turned out to be 28%.

Consider `Nc1nnc(-c2ccccc2O)cc1N1CC2CCC(C1)N2c1cccc(OCCN2CCN(C(=O)C3CC4(C3)CN(c3ccc5c(c3)C(=O)N(C3CCC(=O)NC3=O)C5=O)C4)CC2)c1` (racemic) [Example 61, rac-5-[6-[4-[2-[3-[3-[3-amino-6-(2-hydroxyphenyl)pyridazin-4-yl]-3,8-diazabicyclo[3.2.1]octan-8-yl]phenoxy]ethyl]piperazine-1-carbonyl]-2-azaspiro[3.3]heptan-2-yl]-2-(2,6-dioxo-3-piperidyl)isoindoline-1,3-dione], for which the DC50 (6 h incubation) is 100 nM. The compound further gave a maximal effect (Emax) under setting [1] of 53%.

For `Nc1nnc(-c2ccccc2O)cc1N1CC2CCC(C1)N2c1cccc(OCCN2CCN(C(=O)CNC(=O)C3CCN(c4ccc5c(c4)C(=O)N(C4CCC(=O)NC4=O)C5=O)CC3)CC2)c1` (racemic) [Example 19, rac-N-[2-[4-[2-[3-[3-[3-amino-6-(2-hydroxyphenyl)pyridazin-4-yl]-3,8-diazabicyclo[3.2.1]octan-8-yl]phenoxy]ethyl]piperazin-1-yl]-2-oxo-ethyl]-1-[2-(2,6-dioxo-3-piperidyl)-1,3-dioxo-isoindolin-5-yl]piperidine-4-carboxamide], under “6 h incubation, Emax = amount of residual protein remaining in the cell following compound treatment”, the “HiBit A549 SMARCA2 Emax (%) 6 h” value was determined as 34%. Moreover, the DC50 (6 h incubation) amounted to 64 nM.

With `Nc1nnc(-c2ccccc2O)cc1N1CCC(CNC(=O)CCNc2cccc3c2C(=O)N(C2CCC(=O)NC2=O)C3=O)(c2ccccc2)CC1` (stereo not shown) [Example 75, N-((1-(3-amino-6-(2-hydroxyphenyl)pyridazin-4-yl)-4-phenylpiperidin-4-yl)methyl)-3-((2-(2,6-dioxopiperidin-3-yl)-1,3-dioxoisoindolin-4-yl)amino)], the DC50 (6 h incubation) came out at 1430 nM. The compound also came in with an Emax under setting [1] of 63%.

With `Nc1nnc(-c2ccccc2O)cc1N1CC2CCC(C1)N2c1cccc(CC2CCN(C(=O)CCNc3cccc4c3C(=O)N(C3CCC(=O)NC3=O)C4=O)CC2)c1` (racemic) [Example 58, rac-4-[[3-[4-[[3-[3-[3-amino-6-(2-hydroxyphenyl)pyridazin-4-yl]-3,8-diazabicyclo[3.2.1]octan-8-yl]phenyl]methyl]-1-piperidyl]-3-oxo-propyl]amino]-2-(2,6-dioxo-3-piperidyl)isoindoline-1,3-dione], the DC50 (6 h incubation) was 43 nM. Under setting [1], this compound came in with a maximal effect (Emax) of 59%.
